Measured values from US6737397B1, “Control of cancer growth through the interaction of [MET5]-enkephalin and the zeta receptor” (The Penn State Research Foundation, priority 1996, dated 2004).
Like-named read-outs stand apart in the source and are kept apart here. No end group written: not given here.

Columns and labels:
ζ-opioid receptor = biological target: T1, ζ-opioid receptor (Homo sapiens, UniProt Q9NZT2); assay: Competition for binding of [3H][Met5]enkephalin (4.0 nM) in nuclear homogenates of HT-29 human colon tumors; parameters: from tissue; host or cells: HT-29 human colon tumor xenografts grown in athymic nude mice; nuclear (P1) and other subcellular fractions
T1 sequence (Q9NZT2 1-677): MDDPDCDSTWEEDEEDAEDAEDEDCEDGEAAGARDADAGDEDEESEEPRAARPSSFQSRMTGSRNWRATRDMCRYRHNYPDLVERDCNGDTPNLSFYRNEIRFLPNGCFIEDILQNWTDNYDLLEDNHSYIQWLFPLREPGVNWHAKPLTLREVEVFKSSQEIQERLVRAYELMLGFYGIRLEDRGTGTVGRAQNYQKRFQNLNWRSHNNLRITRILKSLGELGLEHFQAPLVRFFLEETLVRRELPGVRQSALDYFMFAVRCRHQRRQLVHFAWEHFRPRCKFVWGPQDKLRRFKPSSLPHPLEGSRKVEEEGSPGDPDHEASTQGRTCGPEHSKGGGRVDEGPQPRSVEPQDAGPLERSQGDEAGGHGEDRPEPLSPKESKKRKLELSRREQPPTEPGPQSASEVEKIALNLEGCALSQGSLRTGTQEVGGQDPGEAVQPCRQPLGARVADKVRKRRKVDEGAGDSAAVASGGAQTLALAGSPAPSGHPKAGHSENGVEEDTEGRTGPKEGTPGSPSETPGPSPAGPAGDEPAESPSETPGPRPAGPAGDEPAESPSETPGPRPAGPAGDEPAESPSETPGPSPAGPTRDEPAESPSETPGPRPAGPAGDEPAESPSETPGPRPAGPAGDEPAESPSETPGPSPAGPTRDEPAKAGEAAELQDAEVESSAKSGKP

HT-29 cells = assay: Growth assay (cell counts) of HT-29 human colon cancer cells in culture; format: cell-based; details: 48 hr
Experimental: In some examples, cultures of HT-29 cells were maintained in McCoy's 5A media without fetal calf serum.
(§1) Cells were seeded at equivalent amounts into 75 cm^2 flasks or into 9.6 cm^2 wells (6-well plates, Falcon) and were counted 24 hr later to determine plating efficiency. Drugs or sterile water were added beginning 24 hr after seeding (=0 hours) and both media and drugs were changed daily. All drugs were prepared in sterile water and dilutions represent final concentrations of the compounds. At appropriate times, cells were harvested with 0.05% trypsin/0.53 mM EDTA, centrifuged, and counted with a hemacytometer at 200×. Cell viability was determined by trypan blue staining. At least 2 aliquots/flask or well were counted and 2 flasks or wells/time point/treatment group were sampled.

COLO 205 cells = assay: Growth assay (cell counts) of COLO 205 human colon cancer cells; format: cell-based
Experimental: (§2) HT-29, WiDr, and COLO 205 cell lines were obtained from the American Type Culture Collection (Rockville, Md.). HT-29 cells were grown in McCoy's 5A media (modified), WiDr cells in Minimum Essential Media, and COLO 205 cells in RPMI 1640 media; all media contained 10% fetal calf serum, 2 mM […], 1.2% sodium bicarbonate and antibiotics (11 Units/ml penicillin, 10 μg/ml streptomycin, 10 μg/ml neomycin) in a humidified atmosphere of 7% CO2/93% air at 37° C. In some examples, cultures of HT-29 cells were maintained in McCoy's 5A media without fetal calf serum.
as §1
(§3) To examine the ubiquity of opioid activity with respect to colon cancer, two other colon cancer cell lines were investigated: COLO 205 and WiDr.

WiDr cells = assay: Growth assay (cell counts) of WiDr human colon cancer cells; format: cell-based
Experimental: as §2, §1, §3

[1] = tested on: HT-29 human colon cancer cells; assay: HT-29 human colon cancer xenografts in nude mice treated with OGF and/or naloxone

CSCC[C@H](NC(=O)[C@H](Cc1ccc(OS(=O)(=O)O)cc1)NC(=O)[C@@H](N)CC(=O)O)C(=O)NCC(=O)N[C@@H](Cc1c[nH]c2ccccc12)C(=O)N[C@@H](CCSC)C(=O)N[C@@H](CC(=O)O)C(=O)N[C@@H](Cc1ccccc1)C(N)=O [CCK-8, cholecystokinin octapeptide]
ability to compete in displacing [3H]-[Met5]-enkephalin binding (ζ-opioid receptor): exhibit ability to compete

SKF-10,047
ability to compete in displacing [3H]-[Met5]-enkephalin binding (ζ-opioid receptor): not competitive
IC50 (ζ-opioid receptor; read-out: IC50): 0.795 ± 0.005 µM
Ki (ζ-opioid receptor; read-out: KI): 0.612 ± 0.004 µM

C[C@H](N)C(=O)NCC(=O)N[C@H]1CSSC[C@@H](C(=O)O)NC(=O)[C@H](CO)NC(=O)[C@H]([C@@H](C)O)NC(=O)[C@H](Cc2ccccc2)NC(=O)[C@H]([C@@H](C)O)NC(=O)[C@H](CCCCN)NC(=O)[C@H](Cc2c[nH]c3ccccc23)NC(=O)[C@H](Cc2ccccc2)NC(=O)[C@H](Cc2ccccc2)NC(=O)[C@H](CC(N)=O)NC(=O)[C@H](CCCCN)NC1=O [Somatostatin]
IC50 (ζ-opioid receptor): > 10 µM
Ki (ζ-opioid receptor): > 10 µM

CC[C@H](C)[C@H](NC(=O)[C@H](C)NC(=O)[C@H](CC(N)=O)NC(=O)[C@H](CCCCN)NC(=O)[C@H](Cc1ccccc1)NC(=O)[C@H](CC(C)C)NC(=O)[C@@H](NC(=O)[C@@H](NC(=O)[C@H](CC(C)C)NC(=O)[C@@H]1CCCN1C(=O)[C@@H](NC(=O)[C@H](CCC(N)=O)NC(=O)[C@H](CO)NC(=O)[C@H](CCCCN)NC(=O)[C@H](CCC(=O)O)NC(=O)[C@H](CO)NC(=O)[C@@H](NC(=O)[C@H](CCSC)NC(=O)[C@H](Cc1ccccc1)NC(=O)CNC(=O)CNC(=O)[C@@H](N)Cc1ccc(O)cc1)[C@@H](C)O)[C@@H](C)O)C(C)C)[C@@H](C)O)C(=O)N[C@H](C(=O)N[C@@H](CCCCN)C(=O)N[C@@H](CC(N)=O)C(=O)N[C@@H](C)C(=O)N[C@@H](Cc1ccc(O)cc1)C(=O)N[C@@H](CCCCN)C(=O)N[C@@H](CCCCN)C(=O)NCC(=O)N[C@@H](CCC(=O)O)C(=O)O)[C@@H](C)CC [β-Endorphin, β-endorphin]
less potent than [Met5]-enkephalin in displacing radiolabeled [Met5]-enkephalin binding (ζ-opioid receptor): 4.3 fold

CSCC[C@H](NC(=O)[C@H](Cc1c[nH]c2ccccc12)NC(=O)CNC(=O)[C@H](Cc1ccc(O)cc1)NC(=O)[C@H](C)NC(=O)[C@H](CCC(=O)O)NC(=O)[C@H](CCC(=O)O)NC(=O)[C@H](CCC(=O)O)NC(=O)[C@H](CCC(=O)O)NC(=O)[C@H](CCC(=O)O)NC(=O)[C@H](CC(C)C)NC(=O)[C@H](Cc1c[nH]c2ccccc12)NC(=O)[C@@H]1CCCN1C(=O)CNC(=O)[C@@H]1CCC(=O)N1)C(=O)N[C@@H](CC(=O)O)C(=O)N[C@@H](Cc1ccccc1)C(N)=O [Gastrin]
IC50 (ζ-opioid receptor): 0.0775 ± 0.0075 µM
Ki (ζ-opioid receptor): 0.0596 ± 0.0058 µM

dynorphin A 1-8 [Dynorphin A-(1-8)]
ability to compete in displacing [3H]-[Met5]-enkephalin binding (ζ-opioid receptor): not competitive

C=CCN1CC[C@]23c4c5ccc(O)c4O[C@H]2C(=O)CC[C@@]3(O)[C@H]1C5 [naloxone]
effect of concomitant naloxone on [Met5]-enkephalin inhibition of cell number (HT-29 cells; 10^−6 M each): blocked the inhibitory effects
effect on cell growth, alone (HT-29 cells; 10^−6 M): no effect on cell growth
influence on growth, alone (COLO 205 cells; 10^−6 M): no influence on growth
effect of naloxone on suppressive effects of [Met5]-enkephalin on growth (COLO 205 cells; 10^−6 M each): eliminated
influence on growth, alone (WiDr cells; 10^−6 M): no influence on growth
effect of naloxone on suppressive effects of [Met5]-enkephalin on growth (WiDr cells; 10^−6 M each): eliminated
latencies of palpable, visible, or measurable tumors or incidence of cancer versus control mice ([1]; 5 mg/kg OGF with 10 mg/kg naloxone, or 10 mg/kg naloxone alone): No differences
Latency for measurable tumor appearance, days, range ([1]; 10 mg/kg Nal daily): (10-16) days
Latency for palpable tumor ([1]; 10 mg/kg Nal daily): 9.3 ± 1.4 days
Latency for visible tumor ([1]; 10 mg/kg Nal daily): 10.3 ± 1.4 days
No. of mice with tumors 21 days after inoculation ([1]; 10 mg/kg Nal daily): 4/5
No. of mice with tumors 50 days after inoculation ([1]; 10 mg/kg Nal daily): 4/5
tumor volume ([1]; 50 days after inoculation, 10 mg/kg naloxone alone): 1,494±517 mm^3

YGGFMRGL [[Met^5]enkephalin-Arg^6-Gly^7-Leu^8, [Met^5,Arg^6,Gly^7,Leu^8]-enkephalin]
IC50 (ζ-opioid receptor): 0.0375 ± 0.0075 µM
Ki (ζ-opioid receptor): 0.0289 ± 0.0058 µM

CC[C@]12CCN(CC3CC3)[C@H](C(=O)c3ccc(O)cc31)[C@@H]2C [EKC, ethylketocyclazocine]
IC50 (ζ-opioid receptor): > 10000 µM
Ki (ζ-opioid receptor): > 10000 µM
ability to compete in displacing [3H]-[Met5]-enkephalin binding (ζ-opioid receptor): not competitive
